Data published in PubChem BioAssay (NCI).
“And” between values parts separate entries of the source, which are not always exact repeats. Equal entries are not always repeated.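 Grown in 96-well plates, cells were treated for 48 hours with each compound at five concentrations. Insufficient inhibition: endpoint recorded as highest concentration tested. GI50: concentration for 50% inhibition of growth. TGI: total growth inhibition.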

Tested on: MDA-MB-468 breast
Assay: NCI-60 cell line screen, 48 h

SMILES	GI50	TGI
Cc1ccc(S(=O)(=O)Nc2cccc3[nH]c(C(F)(F)F)nc23)cc1	536 nM	26100 nM
C1CN(SSN2CCOCC2)CCO1	> 100000 nM	> 100000 nM
O=C(/C=C/c1ccc([N+](=O)[O-])cc1)c1ccc2c3c(cccc13)CC2	2980 nM	19300 nM
O=C(Nc1cccc(NC(=O)Nc2cc(C(F)(F)F)ccc2Cl)c1)Nc1cc(C(F)(F)F)ccc1Cl	1100 nM	7240 nM
COc1ccc(/C=C2\CCCC3=C2NC(N)=NC3c2ccc(OC)c(OC)c2)cc1OC (configuration not stated)	921 nM	8840 nM
Nc1[nH]nc2nc(-c3cccs3)cc(C(F)(F)F)c12	> 17100 nM	> 25000 nM
O=C(Nc1ccc(Cl)c(Cl)c1)O/N=C\c1c(Cl)ccc([N+](=O)[O-])c1Cl	1080 nM	2720 nM
O=C(Nc1ccc(Cl)cc1)Nc1ccc(Nc2nncc3ccccc23)cc1	2570 nM	9470 nM
CCCCN(CCCC)c1ccc(C(=N)c2ccc(N(CCCC)CCCC)cc2)cc1	189 nM	748 nM
Cn1cc(C2=C(c3cccc(OCC(O)CO)c3)C(=O)NC2=O)c2ccccc21 (configuration not stated)	> 25000 nM	> 25000 nM
CN(C)c1ccc2nc3ccc(=[N+](C)C)cc-3sc2c1	233 nM and 469 nM	1010 nM and 3630 nM
CCOc1cc2ncc(C#N)c(Nc3ccc(OCc4ccccn4)c(Cl)c3)c2cc1NC(=O)/C=C/CN(C)C	< 10 nM and 5.01 nM	41.5 nM and 47.9 nM
COc1cc(C2c3cc4c(cc3OC(NNC(N)=O)C2C)OCO4)cc(OC)c1O (configuration not stated)	7500 nM	> 100000 nM
CCOc1ccccc1N=Nc1c(C)[nH]n(-c2nc(-c3ccccc3)cs2)c1=O	8490 nM	> 100000 nM
CN1CC[C@@H](c2c(O)cc(O)c3c(=O)cc(-c4ccccc4Cl)oc23)[C@@H]1CO	251 nM	772 nM
NC(=O)c1c(NC(=O)c2ccc3c(c2)OCO3)sc2c1CCC(=O)C2	1960 nM	4430 nM
O=C(NC[C@H](O)CO)c1ccncc1Nc1ccc(I)cc1F	> 10000 nM and 12100 nM	> 66000 nM
O=C(COc1ccc(/C=C2\Oc3ccccc3C2=O)cc1)Nc1nc2c(s1)CCCC2	309 nM	1860 nM

SMILES	GI50	TGI
Cc1cc(N2CCCC2)nc(N(CCNc2ccnc3cc(Cl)ccc23)Cc2ccco2)n1	1960 nM	6670 nM
O=[N+]([O-])c1cccc([As]=[As]c2cccc([N+](=O)[O-])c2)c1 (configuration not stated)	52.9 nM	194 nM
COc1cccc(-n2ncc3c(N/N=C/c4ccncc4)ncnc32)c1	5150 nM	> 25000 nM
COC(=O)c1cc2ccc(OC(C)=O)c(OC(C)=O)c2cn1	16100 nM	33500 nM
COc1ccc(C(=O)/C=C/c2c(Cl)c3c(c(OC)c2Cl)OCC(=O)N3)cc1	1690 nM	3700 nM
Nc1nc(Nc2ccc(C3CCC(N4CCOCC4)CC3)cc2)nn1-c1ccccn1 (configuration not stated)	11200 nM	> 100000 nM
CC1(C)[C@@H](OC(N)=O)[C@H]2O[C@H]2[C@]2(CO)[C@H]3CC[C@]4(C)[C@@H](c5ccc(=O)oc5)[C@@H](Cl)C[C@]4(O)C3=CC[C@@H]12	21 nM	96.5 nM
Cc1ccc(CNc2c3ccccc3nc3cc(NC(=O)CCN4CCCC4)ccc23)cc1	449 nM	1630 nM
CCN(CC)Cc1ccc(Nc2nccc(-c3cnn4ncccc34)n2)cc1	35 nM	97.5 nM
CC[C@H](CO)Nc1nc(NCc2ccccc2)n2ncc(C(C)C)c2n1	1880 nM	5190 nM
Cc1c2c(nn1C)CSCc1cc(n(C)n1)CSc1cc(c3ccccc3c1)OCCCc1c(C(=O)O)n(C)c3c-2c(Cl)ccc13	185 nM	487 nM
CS(=O)(=O)c1nccc(-c2c(-c3ccc(F)c(OCc4ccc(F)cc4)c3)nc3sccn23)n1	2430 nM	7030 nM
NC(=S)N/N=C/c1ncccc1N	1890 nM	10200 nM
O=c1nc2oc3ccc4ccccc4c3cc-2s1	551 nM	19500 nM
CC(C)(O)CC(=O)NCCn1ccc2ncnc(Nc3ccc(Oc4cccc(C(F)(F)F)c4)c(Cl)c3)c21	272 nM	4060 nM
COc1cc(C(=O)NC2CCN(C)CC2)c(F)cc1Nc1ncc2c(n1)N(C1CCCC1)CC(F)(F)C(=O)N2C	< 10 nM	633 nM
COc1ccc(C(=O)c2cc3c(N)c(C(=O)Nc4cccc5ccccc45)sc3nc2C)cc1	220 nM	> 50000 nM
CN(C)c1ccc2c(c1)OC(N)=C(C#N)C2c1ccc2c(c1)CCO2 (configuration not stated)	117 nM	47700 nM
